Tests used:
heart failure canines = test: Hemodynamic efficacy in heart failure canines (tachycardia-pacing model); assay type: in vivo, beagle dogs; conditions: for ESP / ESPVR / HR / PRSW / SW / Tau / EDV: heart failure canines, i.v. infusion; for ESP / ESPVR / HR / PRSW / SW / Tau: Dose Rate (μmol/kg/min): CXL-1020 100, (1) 75, (2) 100, (83) 65, (84) 77; for EDV: Dose Rate : CXL-1020 100, (1) 75, (2) 100, (83) 65, (84) 77; for hemodynamic activity compared with CXL-1020: both normal and failing canine models, FIG. 1
Protocol: The cardiovascular effects of nitroxyl donors were examined by means of pressure-volume (PV) curve (loops) analysis in conscious, sling-restrained beagle dogs. Animals were allowed free access to drinking water and a commercial canine diet under standard laboratory conditions. Fluorescent lighting was provided via an automatic timer for approximately 12 hours per day. On occasion, the dark cycle was interrupted intermittently due to study-related activities. Temperature and humidity were monitored and recorded daily and maintained to the maximum extent possible between 64° F. and 84° F. and 30% to 70%, respectively. The dogs were acclimated for a period of at least 1 week prior to surgery. Following surgery and recovery the animals were acclimated to sling restraint for a period up to 4.5 hours. Animals were fasted overnight prior to surgery. An indwelling venous catheter was placed in peripheral vein (e.g., cephalic) for administration of anesthetic. General anesthesia was induced intravenously (bolus) with buprenorphine (about 0.015 mg/kg) followed by an intravenous bolus of propofol (about 6 mg/kg). Additionally, a prophylactic antibiotic (cefazolin 20 to 50 mg/kg via i.v.) was given upon induction. […] Anesthesia was maintained with inhaled isoflurane (1% to 3%). Once a stable (surgical) plane of anesthesia had been established, a left-thoracotomy was performed (under strict aseptic conditions) and each animal was chronically instrumented with sono-micrometry crystals providing left-ventricular (LV) dimensions/volume. Additionally, a fluid-filled catheter and a solid-state monometer were placed in the left ventricle for pressure monitoring. A fluid-filled catheters was placed in the right ventricle (RV) and the aorta (Ao) for pressure monitoring/test article administration. […] The catheters/wires were aseptically tunneled and externalized between the scapulae. Over the course of the study, fluid-filled catheters were regularly (at least once weekly) flushed with a locking-solution in order to prevent both clotting and bacterial growth (2-3 mL of Taurolidine-Citrate solution, TCS-04; Access Technologies). Following the cardiovascular instrumentation, the right jugular vein was carefully exposed and cannulated with a bipolar pacing lead/catheter ([…]® Novus; Medtronic). Under fluoroscopic guidance, this pacing lead was advanced normograde into the right ventricle and actively affixed (screwed in) to the apical endocardium. The proximal end of the lead was secured to the pacing device (Kappa 900; Medtronic). Subsequently, the pacemaker was placed/secured in a subcutaneous pocket in the neck. Considering that the heart was exposed via a thoracotomy, a bipolar pacing wire was secured in the right ventricular mid-myocardium. This pacing lead was tunneled/externalized between the scapulae, and used in conjunction with an external impulse generator/pacemaker. The implanted endocardial pacemaker was used as a back-up to the external/epicardial pacemaker. Prior to closure of the chest from the thoracotomy, a chest tube was placed for drainage of any fluid and/or gas that accumulated from the surgical procedure. The tube was aspirated twice daily until the amount of fluid removed was less than 35 mL per aspiration in an approximately 24 hour period. The chest tube was then removed. All animals were administered a prophylactic antibiotic (cefazolin 20 to 50 mg/kg via i.v.) and pain medication (meloxicam at about 0.2 mg/kg via i.v.). If necessary, an additional analgesic was also administered which included a fentanyl patch (25 to 50 mcg/hour). All surgical incisions were closed in layers; the underlying musculature was closed with absorbable sutures and the skin was closed with staples. Following surgery, the animals were allowed to recover for at least 14 days. Cephalexin (20 to 50 mg/kg) was administered orally BID for at least 7 days and meloxicam (0.1 mg/kg) was administered SID orally or subcutaneously for at least 2 days after surgery. […]

dogs = test: Canine implanted central catheter 72 hour continuous infusion model (clinical and microscopic pathology of vasculature); assay type: in vivo; conditions: for NOAEL (μg/kg/min) (molar equivalent to CXL-1020): based on microscopic pathology markers (edema, hemorrhage, vascular and perivascular inflammation); for toxicological profile relative to CXL-1020: microscopic pathology, Table 8
Protocol: To determine the cause of the inflammation and hind limb swelling, a series of 72-hour continuous infusion investigative studies were conducted over the following 6 months. […] The first site of inflammation, the catheter insertion site, caused the dog hind limb swelling and inflammation observed in the early-terminated follow-up study. Increasing infusate pH from 4 to 6 decreased inflammation, improving the inflammatory profile by approximately 3-fold (see FIG. 4).
Confirmation of this was obtained through evaluating the nitroxyl donors through detailed histopathology of the vasculature at the site of insertion of into the femoral vein (15 cm distal to the catheter tip), along the catheter track to the catheter tip, and past the tip downstream 20 cm.
A composite score was calculated from the sum of these findings scores. In FIG. 3, the cumulative histology composite score ranges from 0-2 (low severity) to 11-12 (high severity). […] The NOAEL values determined based on these microscopic pathology markers for a series of nitroxyl donors, expressed in molar equivalent dose rates (μg/kg/min) to CXL-1020, are provided in Table 8.

Row | SMILES | ESP (heart failure canines) | ESPVR (heart failure canines) | HR (heart failure canines) | PRSW (heart failure canines) | SW (heart failure canines) | Tau (heart failure canines) | EDV (heart failure canines) | findings around catheter insertion site, at catheter tip and downstream (dogs; 72-hour infusion, dogs) | NOAEL (μg/kg/min) (molar equivalent to CXL-1020) (dogs) | dose rates at which significant undesirable side effects were still demonstrated (dogs; infusate pH 6, dogs) | dose rates causing clinical pathology changes consistent with an inflammatory process (dogs; pH 4 formulation, 1:1 molar CXL-1020:CAPTISOL, diluted in 5% dextrose, 72-hour infusion, dogs) | hemodynamic activity compared with CXL-1020 (heart failure canines) | toxicological profile relative to CXL-1020 (dogs)
1 | CS(=O)(=O)c1ccccc1S(=O)(=O)NO [CXL-1020, N-hydroxy-2-methanesulfonylbenzene-1-sulfonamide, reference compound] | −14.78 ± 3.24 % Change from Baseline | 45.42 ± 16.48 % Change from Baseline | −0.23 ± 2.25 % Change from Baseline | 21.97 ± 3.79 % Change from Baseline | −12.01 ± 4.24 % Change from Baseline | −17.27 ± 1.39 % Change from Baseline | −12.03 ± 3.72 % Change from Baseline | Vascular inflammation | <3 µg/kg/min | greater than or equal to 3 μg/kg/min | greater than or equal to 0.03 μg/kg/min |  | 
2 | Cc1ccc(S(=O)(=O)NO)o1 [Compound 1, N-Hydroxy-5-methylfuran-2-sulfonamide] | −17 ± 1 % Change from Baseline | 29 ± 1 % Change from Baseline | −6 ± 2 % Change from Baseline | 22 ± 1 % Change from Baseline | 10 ± 5 % Change from Baseline | −16 ± 4 % Change from Baseline | −9 ± 2 % Change from Baseline |  | ≥180 µg/kg/min |  |  | comparable hemodynamic activity to CXL-1020 | 
3 | CS(=O)(=O)c1cccc(S(=O)(=O)NO)c1 [Compound 2, N-Hydroxy-3-methanesulfonylbenzene-1-sulfonamide] | −13.83 ± 3.30 % Change from Baseline | 22.84 ± 5.69 % Change from Baseline | −1.36 ± 2.06 % Change from Baseline | 17.91 ± 1.47 % Change from Baseline | −9.41 ± 2.84 % Change from Baseline | −12.51 ± 2.72 % Change from Baseline | −3.26 ± 1.05 % Change from Baseline |  | ≥180 µg/kg/min |  |  | comparable hemodynamic activity to CXL-1020 | 
4 | O=S(=O)(NO)c1ccco1 [Compound 83, N-Hydroxyfuran-2-sulfonamide] | −18.52 ± 2.59 % Change from Baseline | 38.06 ± 8.79 % Change from Baseline | 0.05 ± 1.25 % Change from Baseline | 14.90 ± 2.27 % Change from Baseline | −9.63 ± 1.70 % Change from Baseline | −18.32 ± 3.06 % Change from Baseline | −4.91 ± 0.57 % Change from Baseline |  | ≥90 µg/kg/min |  |  | comparable hemodynamic activity to CXL-1020 | substantially improved toxicological profile relative to CXL-1020
5 | Cc1ccc(S(=O)(=O)NO)s1 [Compound 84, N-Hydroxy-5-methylthiophene-2-sulfonamide] | −13.72 ± 2.83 % Change from Baseline | 51.01 ± 5.85 % Change from Baseline | 3.72 ± 2.45 % Change from Baseline | 25.03 ± 2.52 % Change from Baseline | −5.96 ± 1.58 % Change from Baseline | 15.61 ± 1.58 % Change from Baseline | −13.43 ± 4.63 % Change from Baseline |  | ≥60 µg/kg/min |  |  | comparable hemodynamic activity to CXL-1020 | substantially improved toxicological profile relative to CXL-1020
6 | Cn1ccc(S(=O)(=O)NO)n1 [Compound 85, N-Hydroxy-1-methyl-1H-pyrazole-3-sulfonamide] |  |  |  |  |  |  |  |  | ≥180 µg/kg/min |  |  | comparable hemodynamic activity to CXL-1020 | substantially improved toxicological profile relative to CXL-1020

Reference: patent US10245249B2, “Pharmaceutical compositions comprising nitroxyl donors” (Cardioxyl Pharmaceuticals, Inc., priority 2013, dated 2019)
